Values quoted from earlier work in patent publication US9110064B2, “Methods for diagnosis and treatment of endometrial cancer” (THE REGENTS OF THE UNIVERSITY OF CALIFORNIA, priority 2005, dated 2015).

System: PMP22
Settings: patients with Charcot Marie Tooth Type I

CC(=O)[C@H]1CC[C@H]2[C@@H]3CCC4=CC(=O)CC[C@]4(C)[C@H]3CC[C@]12C [progesterone]
PMP22 levels: restore normal PMP22 levels | disease phenotype: ameliorated the disease phenotype
